US11472806B2, “Substituted heterocyclic compounds as allosteric modulators of group II metabotropic glutamate receptors” (Domain Therapeutics, priority 2017, dated 2022)
Counter-ions that a name gives are not always drawn.

Legend:
human mGluR3 (hmGluR3) = target: T1, human mGluR3 (hmGluR3) (Homo sapiens, UniProt Q14832); assay: Human mGluR3 positive allosteric modulator evaluation using Ca++ functional assay; format: cell-based; conditions: hmGluR3 transiently over-expressed in HEK-293 cells; cells stimulated by an EC50 glutamate concentration; intracellular Ca2+ (Fluo4AM, FLIPR Tetra)
T1 construct: expressed in transfected cells; host or cells: HEK-293 cells, transient co-transfection by electroporation
T1 sequence (Q14832 23-879): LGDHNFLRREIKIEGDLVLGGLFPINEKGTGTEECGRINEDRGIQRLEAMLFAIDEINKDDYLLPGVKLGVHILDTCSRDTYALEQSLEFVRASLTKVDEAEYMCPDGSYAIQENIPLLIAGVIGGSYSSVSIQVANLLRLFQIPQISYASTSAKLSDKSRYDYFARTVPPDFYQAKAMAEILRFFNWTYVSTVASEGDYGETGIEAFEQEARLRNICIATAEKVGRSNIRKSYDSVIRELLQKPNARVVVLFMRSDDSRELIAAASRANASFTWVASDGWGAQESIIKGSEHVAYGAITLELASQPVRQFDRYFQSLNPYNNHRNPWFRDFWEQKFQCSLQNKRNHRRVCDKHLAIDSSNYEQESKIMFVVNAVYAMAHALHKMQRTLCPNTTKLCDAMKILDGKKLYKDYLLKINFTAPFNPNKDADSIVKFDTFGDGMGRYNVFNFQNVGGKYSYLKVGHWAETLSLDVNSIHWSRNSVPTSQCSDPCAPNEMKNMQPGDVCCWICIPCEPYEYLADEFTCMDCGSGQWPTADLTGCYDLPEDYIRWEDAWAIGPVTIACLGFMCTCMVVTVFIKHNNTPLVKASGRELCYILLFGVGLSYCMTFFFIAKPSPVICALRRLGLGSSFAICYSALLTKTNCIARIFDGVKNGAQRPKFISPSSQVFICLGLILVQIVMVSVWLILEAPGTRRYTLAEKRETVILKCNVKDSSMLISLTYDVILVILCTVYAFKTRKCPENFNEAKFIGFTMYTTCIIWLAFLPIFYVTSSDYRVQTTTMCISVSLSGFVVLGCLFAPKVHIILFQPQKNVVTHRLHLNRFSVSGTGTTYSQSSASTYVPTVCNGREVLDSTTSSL
Method: Example 89: Human mGluR3 Positive Allosteric Modulator Evaluation Using Ca++ Functional Assay
Compounds of the present invention were tested successively for their agonist and positive allosteric modulator activities on human mGluR3 (hmGluR3) transiently over-expressed in HEK-293 cells. Compounds exert agonist activity if they are able to activate hmGluR3 by themselves, i.e., in absence of the endogenous agonist glutamate; and they exert positive allosteric modulator activity if they increase the action of the endogenous agonist glutamate.
Cell Culture and Transfection:
HEK-293 cells were maintained in Modified Eagle's Medium supplemented with 10% Foetal Calf Serum, 1% Penicillin/Streptomycin and 1% non-essential amino acids at 37° C./5% CO2. Cells were co-transfected by electroporation with four DNA plasmids encoding hmGluR3, a chimeric G protein allowing redirection of the activation signal toward intracellular calcium pathway, and two glutamate transporters so as to decrease extracellular glutamate levels and avoid receptor desensitization (Brabet I et al., Neuropharmacology 37(8), 1043-51, 1998). After transfection, cells were seeded in 75 cm^2 culture flasks, and cultured for 24 h.
Calcium Assa EC50 determination:
Receptor activity was detected by changes in intracellular calcium measured using the fluorescent Ca^2+ sensitive dye, Fluo4AM (Molecular Probes).
The day of the assay, medium was aspirated and replaced during 3 hrs by freshly prepared buffer B (HBSS 1×, Hepes 20 mM, MgSO4-7H2O 1 mM, Na2CO3 3.3 mM, CaCl2-2H2O 1.3 mM, 0.5% BSA, Probenecid 2.5 mM). Then, cells were loaded at 37° C./5% CO2 for 1.5 hrs with buffer B containing 1 μM Fluo4AM, 0.1 mg/mL Pluronic Acid, 7 μg/mL Glutamate Pyruvate Transaminase and 2 mM sodium pyruvate. Afterwards cells were washed with buffer B. Cells were then detached from the 75 cm^2 culture flasks with Accutase® (5 min incubation at 37° C.), centrifuged (5 min at 840 rpm), resuspended in buffer B and finally seeded at a density of 30,000 cells/well in black-walled clear-bottom 384-well plates. Addition of compounds on cells and intracellular Ca^2+ measurements (excitation 485 nm, emission 525 nm) were performed by the fluorescence microplate reader FLIPR Tetra (Molecular Devices).
Agonist and positive allosteric modulator activities of compounds were consecutively evaluated on the same cells plate. Agonist activity was first tested during 10 min with the addition of compound alone on the cells. Then, the cells were stimulated by an EC50 glutamate concentration and fluorescence was recorded for additional 3 min. EC50 glutamate concentration is the concentration giving 50% of the maximal glutamate response. Agonist and/or positive allosteric modulator activity(ies) were evaluated in comparison to basal signal or signal evoked by EC50 glutamate concentration alone, respectively.
For potency determination, a dose-response test was performed using 20 concentrations of each compound of the invention. Dose-response curves were fitted using the sigmoïdal dose-response (variable slope) analysis in XLfit Scientific Curve Fitting for Excel (IDBS). EC50 of agonist/EC50 of positive allosteric modulator activity(ies) were calculated. Dose-response experiments were all performed in duplicate, two times independently.

| Structure (SMILES) | EC50 (human mGluR3 (hmGluR3)) [nM] | melting point [°C] |
| --- | --- | --- |
| COCn1cc2c(n1)C(=O)N(C)C1(CC1)c1ccc(-c3ccc(F)cn3)cc1-2 [Example 76, 2-(Methoxymethyl)-5-methyl-9-(5-fluoro-pyridin-2-yl)-2H-spiro[benzo[c]pyrazolo[4,3-e]azepine-6,1′-cyclopropan]-4(5H)-one] | < 100 | 219 to 223 |
| Cc1ncccc1-c1cnc2c(n1)-n1cccc1C(=O)N(C)C2 (as salt: hydrochloride) [Example 7, 5-Methyl-9-(2-methyl-pyridin-3-yl)-5,6-dihydro-5,7,10,10b-tetraaza-benzo[e]azulen-4-one, dihydrochloride] |  | > 250 |
| COCn1cc2c(n1)C(=O)N(C)C1(CC1)c1ccc(-c3ccc(F)nc3)cc1-2 [Example 75, 2-(Methoxymethyl)-5-methyl-9-(6-fluoro-pyridin-3-yl)-2H-spiro[benzo[c]pyrazolo[4,3-e]azepine-6,1′-cyclopropan]-4(5H)-one] |  | 198 to 200 |
| Cc1ncccc1-c1cnc2c(c1)-n1cccc1C(=O)N(C)C2 (as salt: hydrochloride) [Example 6, 5-Methyl-9-(2-methyl-pyridin-3-yl)-5,6-dihydro-5,7,10b-triaza-benzo[e]azulen-4-one, dihydrochloride] |  | > 250 |
| CN1Cc2ccc(-c3ccc(F)nc3)cc2-c2cc(F)cnc2C1=O [Example 47, 2-Fluoro-10-(6-fluoro-pyridin-3-yl)-6-methyl-6,7-dihydro-4,6-diaza-dibenzo[a, c]cyclohepten-5-one] | 100 to 1000 |  |
| Cc1ncccc1-c1cc2c(nn1)CN(C)C(=O)c1cccn1-2 (as salt: hydrochloride) [Example 8, 5-Methyl-9-(2-methyl-pyridin-3-yl)-5,6-dihydro-5,7,8,10b-tetraaza-benzo[e]azulen-4-one, dihydrochloride] |  | > 250 |
| Cc1ncccc1-c1ccc2c(c1)-c1ccc(-c3ccnn3C)cc1C(=O)N(C)C21CC1 [Example 23, 3-(2-Methyl-2H-pyrazol-3-yl)-10-(2-methyl-pyridin-3-yl)-6-methyl-6,7-dihydro-spiro[dibenzo[c, e]azepine-7,1′-cyclopropan]-5-one] | 100 to 1000 |  |
| Cc1ncccc1-c1ccc2c(c1)-c1ccccc1C(=O)N(C)C21CC1 (as salt: hydrochloride) [Example 21, 10-(2-Methyl-pyridin-3-yl)-6-methyl-6,7-dihydro-spiro[dibenzo[c,e]azepine-7,1′-cyclopropan]-5-one, hydrochloride] |  | > 250 |
| Cc1ccc2c(n1)C(=O)N(C)Cc1ccc(-c3cccnc3C)cc1-2 [Example 41, 3,6-Dimethyl-10-(2-methyl-pyridin-3-yl)-6,7-dihydro-4,6-diaza-dibenzo[a, c]cyclohepten-5-one] | 100 to 1000 |  |
